Assays:
Rattus norvegicus [1] = assay: Inhibition of AII induced mean arterial blood pressure in rat assessed as vasoconstrictor at 1 mg/kg, po; format: functional
[2] = Inhibition of Lacticaseibacillus casei TS
Thymidylate synthase = Thymidylate synthase (Homo sapiens, UniProt P04818); assay: Inhibition of human TS
[3] = Binding affinity to AT1 in rabbit aorta; format: tissue-based, Oryctolagus cuniculus
Rattus norvegicus [4] = assay: Anticonvulsant activity in PTZ induced rat at 50 mg/kg, sc measured after 2 to 4 mins relative to control; format: functional; details: time 2-4 min
Rattus norvegicus [5] = assay: Anticonvulsant activity in rat at 50 mg/kg, ip measured after 1 hrs by MES test relative to control; format: functional
Rattus norvegicus [6] = assay: Anticonvulsant activity in albino rat at 30 mg/kg, ip measured after 1 hrs by MES test; format: functional

Chain of Thymidylate synthase (P04818 whole entry): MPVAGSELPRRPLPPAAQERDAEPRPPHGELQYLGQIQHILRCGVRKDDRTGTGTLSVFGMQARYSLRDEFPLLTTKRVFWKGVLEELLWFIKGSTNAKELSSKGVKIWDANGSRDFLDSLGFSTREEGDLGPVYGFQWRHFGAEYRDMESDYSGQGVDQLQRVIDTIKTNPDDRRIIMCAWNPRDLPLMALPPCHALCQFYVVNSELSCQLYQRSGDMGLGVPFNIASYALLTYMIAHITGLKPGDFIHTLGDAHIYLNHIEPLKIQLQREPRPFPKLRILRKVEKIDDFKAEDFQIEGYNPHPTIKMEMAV

CCCCc1nc2ccc([C@@]3(C)C[C@H]4CCCN4O3)cc2c(=O)n1Cc1ccc(-c2ccccc2-c2nn[nH]n2)cc1
Activity (Rattus norvegicus [1]): 55 mmHg

COC(=O)[C@H](Cc1c[nH]c2ccccc12)NC(=O)c1ccc(Sc2c(C)ccc3nc(N)[nH]c(=O)c23)cc1
IC50 [2]: 200 nM
IC50 (Thymidylate synthase): 3 nM

CCCCCc1nc2ccc(C)cc2c(=O)n1Cc1ccc(-c2ccccc2-c2nn[nH]n2)cc1
IC50 [3]: ≥ 1.3 nM

COC(=O)[C@H](Cc1ccc(O)c(O)c1)NC(=O)c1ccc(Sc2c(C)ccc3nc(N)[nH]c(=O)c23)cc1
IC50 [2]: 200 nM
IC50 (Thymidylate synthase): 3 nM

CCCCc1nc2ccc(Cl)cc2c(=O)n1Cc1ccc(-c2ccccc2-c2nn[nH]n2)cc1
IC50 [3]: ≥ 1.3 nM

O=C1N=C([O-])NC1(c1ccccc1)c1ccccc1.[Na+] [PHENYTOIN SODIUM]
Activity (Rattus norvegicus [4]): 80%
Activity (Rattus norvegicus [5]): 80%
inhibition in vivo at 30 mg/kg (Rattus norvegicus [6]): 80%

Cc1nc2ccccc2c(=O)n1NCc1nnc(NCC2C(=O)NC(=S)NC2=O)s1
Activity (Rattus norvegicus [4]): 60%
Activity (Rattus norvegicus [5]): 60%

COC(=O)[C@H](Cc1ccccc1)NC(=O)c1ccc(Sc2c(C)ccc3nc(N)[nH]c(=O)c23)cc1
IC50 [2]: 200 nM
IC50 (Thymidylate synthase): 3 nM

CCCCc1nc2cccc(C)c2c(=O)n1Cc1ccc(-c2ccccc2C(=O)O)cc1
IC50 [3]: 370 nM

CCCCc1nc2ccc([C@H]3C[C@H]4CCCCN4O3)cc2c(=O)n1Cc1ccc(-c2ccccc2-c2nnn[nH]2)cc1
Activity (Rattus norvegicus [1]): 55 mmHg

COC(=O)[C@H](NC(=O)c1ccc(Sc2c(C)ccc3nc(N)[nH]c(=O)c23)cc1)c1ccccc1
IC50 [2]: 200 nM
IC50 (Thymidylate synthase): 3 nM

CCCCc1nc2ccc([C@@]3(C(=O)N4CCCCC4)C[C@H]4CCCN4O3)cc2c(=O)n1Cc1ccc(-c2ccccc2-c2nnn[nH]2)cc1
Activity (Rattus norvegicus [1]): 55 mmHg

COC(=O)c1cccc(NC(=O)c2ccc(Sc3c(C)ccc4nc(N)[nH]c(=O)c34)cc2)c1
IC50 [2]: 200 nM
IC50 (Thymidylate synthase): 3 nM

COC(=O)[C@@H](NC(=O)c1ccc(Sc2c(C)ccc3nc(N)[nH]c(=O)c23)s1)c1ccccc1
IC50 [2]: 200 nM
IC50 (Thymidylate synthase): 3 nM

COC(=O)[C@H](Cc1ccc(O)cc1)NC(=O)c1ccc(Sc2c(C)ccc3nc(N)[nH]c(=O)c23)cc1
IC50 [2]: 200 nM
IC50 (Thymidylate synthase): 3 nM

Cc1nc2c(Br)cc(Br)cc2c(=O)n1NCC(=O)NNC(=S)NCC1C(=O)NC(=O)NC1=O
Activity (Rattus norvegicus [4]): 40%
Activity (Rattus norvegicus [5]): 40%

Cc1nc2ccc(I)cc2c(=O)n1NCc1nnc(NCC2C(=O)NC(=S)NC2=O)s1
Activity (Rattus norvegicus [4]): 60%
Activity (Rattus norvegicus [5]): 60%

Cc1nc2ccc(Br)cc2c(=O)n1NCC(=O)NNC(=S)NCC1C(=O)NC(=S)NC1=O
Activity (Rattus norvegicus [4]): 40%
Activity (Rattus norvegicus [5]): 40%

Cc1nc2ccc(Br)cc2c(=O)n1NCc1nnc(NCC2C(=O)NC(=S)NC2=O)s1
Activity (Rattus norvegicus [4]): 60%
Activity (Rattus norvegicus [5]): 60%

CCCCc1nc2ccc([C@]3(C)C[C@H]4CC[C@H](C)N4O3)cc2c(=O)n1Cc1ccc(-c2ccccc2-c2nnn[nH]2)cc1
Activity (Rattus norvegicus [1]): 55 mmHg

CCCCc1nc2ccccc2c(=O)n1Cc1ccc(-c2ccccc2C(=O)O)cc1
IC50 [3]: 92 nM

CCCCc1nc2ccc([C@@]3(C(=O)O)C[C@H]4CCCN4O3)cc2c(=O)n1Cc1ccc(-c2ccccc2-c2nnn[nH]2)cc1
Activity (Rattus norvegicus [1]): 55 mmHg

CCCCc1nc2ccc([C@]3(C)C[C@H]4CCCN4O3)cc2c(=O)n1Cc1ccc(-c2ccccc2-c2nn[nH]n2)cc1
Activity (Rattus norvegicus [1]): 55 mmHg

CCCCc1nc2ccc([C@@]3(C)C[C@H]4CC[C@H](C)N4O3)cc2c(=O)n1Cc1ccc(-c2ccccc2-c2nnn[nH]2)cc1
Activity (Rattus norvegicus [1]): 55 mmHg

CCCCc1nc2ccccc2c(=O)n1Cc1ccc(-c2ccccc2-c2nn[nH]n2)cc1
IC50 [3]: ≥ 1.3 nM

Cc1nc2ccc(Br)cc2c(=O)n1NCC(=O)NNC(=S)NCC1C(=O)NC(=O)NC1=O
Activity (Rattus norvegicus [4]): 40%
Activity (Rattus norvegicus [5]): 40%

CCCCc1nc2ccc(C(F)(F)F)cc2c(=O)n1Cc1ccc(-c2ccccc2-c2nn[nH]n2)cc1
IC50 [3]: ≥ 1.3 nM

CCCCc1nc2ccc([C@@]3(CO)C[C@H]4CCCN4O3)cc2c(=O)n1Cc1ccc(-c2ccccc2-c2nnn[nH]2)cc1
Activity (Rattus norvegicus [1]): 55 mmHg

CCCCc1nc2ccc([C@@]3(C(=O)N(C)C)C[C@H]4CCCN4O3)cc2c(=O)n1Cc1ccc(-c2ccccc2-c2nnn[nH]2)cc1
Activity (Rattus norvegicus [1]): 55 mmHg

CCCCc1nc2cc(OC)c(OC)cc2c(=O)n1Cc1ccc(-c2ccccc2-c2nn[nH]n2)cc1
IC50 [3]: ≥ 1.3 nM

CCCCc1nc2ccc([N+](=O)[O-])cc2c(=O)n1Cc1ccc(-c2ccccc2-c2nn[nH]n2)cc1
IC50 [3]: ≥ 1.3 nM

Cc1nc2ccc(I)cc2c(=O)n1NCC(=O)NNC(=S)NCC1C(=O)NC(=O)NC1=O
Activity (Rattus norvegicus [4]): 40%
Activity (Rattus norvegicus [5]): 40%

CCCCC(=O)Nc1ccc2nc(CCCC)n(Cc3ccc(-c4ccccc4-c4nn[nH]n4)cc3)c(=O)c2c1
IC50 [3]: ≥ 1.3 nM

COC(=O)[C@@H](NC(=O)c1ccc(Sc2c(C)ccc3nc(N)nc(O)c23)cc1)c1ccccc1
IC50 [2]: 200 nM
IC50 (Thymidylate synthase): 3 nM

Cc1nc2c(Br)cc(Br)cc2c(=O)n1NCc1nnc(NCC2C(=O)NC(=S)NC2=O)s1
Activity (Rattus norvegicus [4]): 60%
Activity (Rattus norvegicus [5]): 60%

CCCCc1nc2cc(Cl)ccc2c(=O)n1Cc1ccc(-c2ccccc2-c2nn[nH]n2)cc1
IC50 [3]: ≥ 1.3 nM

Cc1ccc2nc(N)[nH]c(=O)c2c1Sc1ccc(C(=O)N[C@@H](Cc2ccccc2)C(=O)O)cc1
IC50 [2]: 200 nM
IC50 (Thymidylate synthase): 3 nM

Reference: ChEMBL document CHEMBL5260833, “An overview of quinazolines: Pharmacological significance and recent developments” (Eur J Med Chem, 2018)
